The source of these data is patent EP1885364B1, “HALOGENATED QUINDOLINE DIMERS FOR THE TREATMENT OF CANCER” (Crystax Pharmaceuticals, S.L., priority 2005, dated 2006).

As usually defined, the IC50 is the concentration at which inhibition is half-maximal. Read a high IC50 as weaker potency.

Type in all cases: cell-based
One assay has as its system NIH-3T3. The assay can be described thus: Cytotoxicity in non-cancerous cell line NIH-3T3. The following applies: NIH3T3; NIH-3T3 non-cancerous cell line. An excerpt: (§1) IC50 is the compound concentration at which 50% of a specific cell type die in a standardized assay, and thus a measure of cytotoxicity. Jurkat is a human leukaemia T cell line, GLC-4 is a human small-cell lung-carcinoma cell line and NIH-3T3 is a rat non-cancerous cell line. [drawing 3]
(§2) These compounds have been tested in a greater number of different cell lines. IC50 is the compound concentration at which 50% of a specific cell type die in a standardized assay, and thus a measure of cytotoxicity. Jurkat is a human leukaemia T cell line, GLC-4 is a human small-cell lung-carcinoma cell line, NIH-3T3 is a rat non-cancerous cell line, K-562 is a human chronic myelogenous leukemia cell line, A549 is a human lung carcinoma cell line, RPMI-1788 is a human leukocytes of peripherial blood from healthy […] cell line, MCF-7 is a human breast adenocarcinoma cell line, Capan-2 is a human pancreas adenocarcinoma cell line, Colo320HSR is a human colon carcinoma cell line, SW-837 is a human rectum adenocarcinoma cell line, IM-9 is a human bone marrow myeloma cell line, IMR-32 is a human neuroblastoma cell line and MT-4 is a human mixed heart's and peripheral blood's lymphocytes of patients with T-cell leukemia cell line. Table 2. Biological activities of IIIa-IIIg.

A further assay has as its system IMR-32 neuroblastoma. The assay can be described thus: MTT in vitro cytotoxicity, IMR-32. The following applies: Homo sapiens, IMR-32 cells, concentrations until 100 µM, incubation until 72 h. Here is the method:
(§3) These compounds have been tested in a greater number of different cell lines. IC50 is the compound concentration at which 50% of a specific cell type die in a standardized assay, and thus a measure of cytotoxicity. […]
(§4) The in vitro cytotoxicity of the compounds of the present invention was evaluated by colorimetric assays with tetrazol salts (MTT) on Jurkat clon E6-1 leukemia, on GLC-4 clon carcinoma, on K-562 chronic myelogenous leukemia, on A549 lung carcinoma, on RPMI-1788 leukocytes of peripherial blood from healthy […], on MCF-7 breast adenocarcinoma, on Capan-2 pancreas adenocarcinoma, on Colo320HSR colon carcinoma, on SW-837 rectum adenocarcinoma, on IM-9 bone marrow myeloma, on IMR-32 neuroblastoma and on MT-4 mixed heart's and peripheral blood's lymphocytes of patients with T-cell leukemia human cell lines, according to the protocol described by Mosmann et al. (J. Immunol. […]

Assay [1] concerns Colo320HSR colon carcinoma. The assay can be described thus: MTT in vitro cytotoxicity, Colo320HSR. The following applies: Homo sapiens, Colo-320HSR cells, concentrations until 100 µM, incubation until 72 h. The procedure:
as §3, §4

The test system of assay [2] is K-562 chronic myelogenous leukemia. The assay can be described thus: MTT in vitro cytotoxicity, K-562. Conditions: Homo sapiens, K562, K-562 cells, concentrations until 100 µM, incubation until 72 h.
Excerpt: as §2
(§5) The in vitro cytotoxicity of the compounds of the present invention was evaluated by colorimetric assays with tetrazol salts (MTT) on Jurkat clon E6-1 leukemia, on GLC-4 clon carcinoma, on K-562 chronic myelogenous leukemia, on A549 lung carcinoma, on RPMI-1788 leukocytes of peripherial blood from healthy […], on MCF-7 breast adenocarcinoma, on Capan-2 pancreas adenocarcinoma, on Colo320HSR colon carcinoma, on SW-837 rectum adenocarcinoma, on IM-9 bone marrow myeloma, on IMR-32 neuroblastoma and on MT-4 mixed heart's and peripheral blood's lymphocytes of patients with T-cell leukemia human cell lines, according to the protocol described by Mosmann et al. (J. Immunol. Methods, 1983,65, 55-63) incorporated herein by reference. In all cases the concentrations used were until 100 µM and times of incubation until 72 h. […] Table 3. Biological activities.

The subject of assay [3] is RPMI-1788 leukocytes of peripherial blood from healthy person. The assay can be described thus: MTT in vitro cytotoxicity, RPMI-1788. Conditions: Homo sapiens, RPMI-1788 cells (from healthy person), concentrations until 100 µM, incubation until 72 h.
Excerpt: as §2, §5

Assay [4] deals with MCF-7 breast adenocarcinoma. The assay can be described thus: MTT in vitro cytotoxicity, MCF-7. The following applies: Homo sapiens, MCF7, MCF-7 cells, concentrations until 100 µM, incubation until 72 h. Here is the method:
as §3, §4

Assay [5] relates to Capan-2 pancreas adenocarcinoma. The assay can be described thus: MTT in vitro cytotoxicity, Capan-2. The following applies: Homo sapiens, Capan-2 cells, concentrations until 100 µM, incubation until 72 h. The procedure:
as §3, §4

The test system of assay [6] is MT-4 mixed heart's and peripheral blood's lymphocytes of patients with T-cell leukemia. The assay can be described thus: MTT in vitro cytotoxicity, MT-4. Conditions: Homo sapiens, MT4, MT-4 cells, concentrations until 100 µM, incubation until 72 h. Here is the method:
as §3, §4

Assay [7] concerns SW-837 rectum adenocarcinoma. The assay can be described thus: MTT in vitro cytotoxicity, SW-837. Conditions: Homo sapiens, SW837, SW-837 cells, concentrations until 100 µM, incubation until 72 h. Here is the method: as §3, §4
A further assay has as its system GLC-4. The assay can be described thus: MTT in vitro cytotoxicity, GLC-4. Conditions: Homo sapiens, GLC4, GLC-4 cells, concentrations until 100 µM, incubation until 72 h.
Excerpt: as §1, §2, §5

The next assay concerns IM-9 bone marrow myeloma. The assay can be described thus: MTT in vitro cytotoxicity, IM-9. Conditions: Homo sapiens, IM-9 cells, concentrations until 100 µM, incubation until 72 h. Here is the method:
as §3, §4

The next assay deals with A549 lung carcinoma. The assay can be described thus: MTT in vitro cytotoxicity, A549. Conditions: Homo sapiens, A549 cells, concentrations until 100 µM, incubation until 72 h.
Excerpt: as §2, §5

Assay [8] concerns Jurkat clon E6-1 leukemia. The assay can be described thus: MTT in vitro cytotoxicity, Jurkat. Conditions: Homo sapiens, Jurkat cells, concentrations until 100 µM, incubation until 72 h.
Excerpt: as §1, §2, §5

For `CN(CCCNC(=O)c1c2cc(Cl)ccc2nc2c1[nH]c1ccccc12)CCCNC(=O)c1c2cc(Cl)ccc2nc2c1[nH]c1ccccc12` [IIIa, N,N'-(4-methyl-4-azaheptamethylene)-di-(-2-chloro-10H-indolo[3,2-b]quinoline)-11,11'-arboxamide], the IC50 in the assay with NIH-3T3 was 11.2 µM; with IMR-32 neuroblastoma, 0.9 µM; in assay [1] it was 0.45 µM; in assay [2], 0.65 µM; in assay [3] it was 3 µM; in assay [4] it was 3.4 µM. For the same molecule, the IC50 in assay [5] was determined as 20.1 µM; in assay [6], 4.5 µM; in [7] it was 6.2 µM; in the assay on GLC-4 it was 0.16 µM; in the assay on IM-9 bone marrow myeloma, 4.6 µM; in the assay with A549 lung carcinoma, 12.2 µM. In assay [8], the midpoint of inhibition, the IC50, lay at 0.09 µM.

For the molecule `CN(CCCNC(=O)c1c2cc(F)ccc2nc2c1[nH]c1ccccc12)CCCNC(=O)c1c2cc(F)ccc2nc2c1[nH]c1ccccc12` [IIIb, N,N'-(4-methyl-4-azaheptamethylene)-di-(-2-fluoro-10H-indolo[3,2-b]quinoline)-11,11'-carboxamide], the IC50 came to 64.3 µM in the assay with NIH-3T3; 0.7 µM with IMR-32 neuroblastoma; 3.2 µM in [1]; 1.1 µM in assay [2]; 5.3 µM in [3]; 4.8 µM in [4]. In addition, the IC50 in assay [5] stood at 25.5 µM; in assay [6], 9 µM; in assay [7] it was 17.9 µM; in the assay with IM-9 bone marrow myeloma it was 7.5 µM; with A549 lung carcinoma, 10 µM; in [8], 0.5 µM.

With `CN(CCCNC(=O)c1c2cc(Br)ccc2nc2c1[nH]c1ccccc12)CCCNC(=O)c1c2cc(Br)ccc2nc2c1[nH]c1ccccc12` [IIIc, N,N'-(4-methyl-4-azaheptamethylene)-di-(-2-bromo-10H-indolo[3,2-b]quinoline)-11,11'-carboxamide], the IC50 in [3] amounted to 9.1 µM; in [8] it was 0.8 µM.

As to `CN(CCCNC(=O)c1c2cc(Cl)ccc2nc2c1[nH]c1ccccc12)CCCNC(=O)c1c2cc(Br)ccc2nc2c1[nH]c1ccccc12` [IIId, N-[3-[[3-[11-((2-bromo-10H-indolo[3,2-b]quinoline)carbonyl)amino]-propyl]-methylamino]propyl]-2-chloro-10H-indolo[3,2-b]quinoline-11-carboxamide], the IC50 was determined as 5.3 µM in [2], 3.5 µM in assay [3], 12.9 µM in the assay with A549 lung carcinoma and 0.6 µM in [8].

Turning to `CN(CCCNC(=O)c1c2cc(F)ccc2nc2c1[nH]c1ccccc12)CCCNC(=O)c1c2cc(Cl)ccc2nc2c1[nH]c1ccccc12` [IIIe, N-[3-[[3-[11-((2-chloro-10H-indolo[3,2-b]quinoline)carbonyl)amino]-propyl]-methylamino]propyl]-2-fluoro-10l-l-indolo[3,2-b]quinoline-11-carboxamide], the IC50 in assay [2] came out at 6.1 µM; in assay [3], 2.9 µM; in the assay with A549 lung carcinoma, 11.6 µM; in assay [8], 0.5 µM.

`CN(CCCNC(=O)c1c2ccccc2nc2c1[nH]c1ccccc12)CCCNC(=O)c1c2cc(F)ccc2nc2c1[nH]c1ccccc12` [IIIf, N-[3-[[3-[11-((2-fluoro-10H-indolo[3,2-b]quinoline)carbonyl)amino]-propyl]-methylamino]propyl]-10H-indolo[3,2-b]quinoline-11-carboxamide]: the IC50 was 2.8 µM in assay [2], 1.7 µM in assay [3], 1.6 µM with A549 lung carcinoma and 0.2 µM in assay [8].

Consider `CN(CCCNC(=O)c1c2ccccc2nc2c1[nH]c1ccccc12)CCCNC(=O)c1c2cc(Cl)ccc2nc2c1[nH]c1ccccc12` [IIIg, N-[3-[[3-[11-((2-chloro-10H-indolo[3,2-b]quinoline)carbonyl)amino]-propyl]-methylamino]propyl]-10H-indolo[3,2-b]quinoline-11-carboxamide], for which the IC50 stood at 5.8 µM in [2], 3.2 µM in assay [3], 6.2 µM with A549 lung carcinoma and 0.7 µM in [8].

For `O=C(O)c1c2cc(Cl)ccc2nc2c1[nH]c1ccccc12` [IIa], the values for the IC50 (in the assay with GLC-4; in [8]) were 15.7 µM and > 25 µM, respectively.

For `O=C(O)c1c2cc(F)ccc2nc2c1[nH]c1ccccc12` [IIb], the IC50 in the assay on GLC-4 was 12 µM; in assay [8], 13 µM.

Consider `O=C(O)c1c2cc(Br)ccc2nc2c1[nH]c1ccccc12` [IIc], for which, in [8], the IC50 was > 25 µM.

Regarding `CN(CCCNC(=O)c1c2ccccc2nc2c1[nH]c1ccccc12)CCCNC(=O)c1c2ccccc2nc2c1[nH]c1ccccc12` [Ia, reference compound], the figures for the IC50 (with NIH-3T3; with GLC-4; in assay [8]) were 6.77 µM, 1.45 µM and 0.97 µM, respectively.
